According to publication doi:10.1101/2025.03.25.645215v1 (biorxiv, 2025):

Key:
[1] = biological target: T1, B^0AT2/SLC6A15 (eGFP-hSLC6A15) (Homo sapiens, UniProt Q9H2J7); assay: cell-based; design: species or system HEK293 eGFP-hSLC6A15
T1 sequence (Q9H2J7 1-730): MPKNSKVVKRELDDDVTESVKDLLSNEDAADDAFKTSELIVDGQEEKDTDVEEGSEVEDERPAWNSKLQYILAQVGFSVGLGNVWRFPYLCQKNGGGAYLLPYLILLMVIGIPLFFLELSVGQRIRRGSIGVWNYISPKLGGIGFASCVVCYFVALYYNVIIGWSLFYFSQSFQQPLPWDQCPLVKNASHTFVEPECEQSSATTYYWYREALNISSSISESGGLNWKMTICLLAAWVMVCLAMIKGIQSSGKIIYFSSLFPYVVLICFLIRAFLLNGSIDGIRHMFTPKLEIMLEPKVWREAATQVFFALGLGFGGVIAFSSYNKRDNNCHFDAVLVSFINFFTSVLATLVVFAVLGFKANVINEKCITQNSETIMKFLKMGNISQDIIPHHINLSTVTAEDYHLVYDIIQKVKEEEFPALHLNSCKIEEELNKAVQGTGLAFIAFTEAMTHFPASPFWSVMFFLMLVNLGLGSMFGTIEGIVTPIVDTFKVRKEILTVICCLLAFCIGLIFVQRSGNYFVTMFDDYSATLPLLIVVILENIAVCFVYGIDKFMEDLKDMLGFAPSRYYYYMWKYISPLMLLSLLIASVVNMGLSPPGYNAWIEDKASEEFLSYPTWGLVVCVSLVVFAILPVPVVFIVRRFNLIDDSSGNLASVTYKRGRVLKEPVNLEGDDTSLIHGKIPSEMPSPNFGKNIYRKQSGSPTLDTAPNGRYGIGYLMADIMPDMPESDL

GAT1 (hGAT1) = GAT1 (hGAT1) (Homo sapiens, UniProt P30531); assay: 3H-GABA uptake inhibition, HEK293, 384-well; type: cell-based
Chain of GAT1 (hGAT1) (P30531 whole entry): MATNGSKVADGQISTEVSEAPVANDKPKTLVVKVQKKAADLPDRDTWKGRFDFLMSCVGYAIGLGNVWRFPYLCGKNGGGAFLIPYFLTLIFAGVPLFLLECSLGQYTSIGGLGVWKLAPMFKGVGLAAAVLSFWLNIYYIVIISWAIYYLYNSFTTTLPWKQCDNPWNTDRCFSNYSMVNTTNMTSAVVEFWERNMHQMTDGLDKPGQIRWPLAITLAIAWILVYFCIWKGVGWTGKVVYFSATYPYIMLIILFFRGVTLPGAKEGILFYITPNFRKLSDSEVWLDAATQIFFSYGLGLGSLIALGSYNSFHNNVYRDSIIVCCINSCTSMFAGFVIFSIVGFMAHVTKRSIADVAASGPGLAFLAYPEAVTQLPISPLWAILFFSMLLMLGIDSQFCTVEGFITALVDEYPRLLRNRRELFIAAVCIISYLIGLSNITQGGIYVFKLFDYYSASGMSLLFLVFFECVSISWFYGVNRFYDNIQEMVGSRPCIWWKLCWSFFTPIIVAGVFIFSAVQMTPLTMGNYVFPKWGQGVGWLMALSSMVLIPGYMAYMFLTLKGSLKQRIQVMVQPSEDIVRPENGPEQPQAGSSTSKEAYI

SERT (hSERT) = SERT (hSERT) (Homo sapiens, UniProt P31645); assay: 3H-5HT uptake inhibition, HEK293, 384-well; type: cell-based
Chain of SERT (hSERT) (P31645 whole entry): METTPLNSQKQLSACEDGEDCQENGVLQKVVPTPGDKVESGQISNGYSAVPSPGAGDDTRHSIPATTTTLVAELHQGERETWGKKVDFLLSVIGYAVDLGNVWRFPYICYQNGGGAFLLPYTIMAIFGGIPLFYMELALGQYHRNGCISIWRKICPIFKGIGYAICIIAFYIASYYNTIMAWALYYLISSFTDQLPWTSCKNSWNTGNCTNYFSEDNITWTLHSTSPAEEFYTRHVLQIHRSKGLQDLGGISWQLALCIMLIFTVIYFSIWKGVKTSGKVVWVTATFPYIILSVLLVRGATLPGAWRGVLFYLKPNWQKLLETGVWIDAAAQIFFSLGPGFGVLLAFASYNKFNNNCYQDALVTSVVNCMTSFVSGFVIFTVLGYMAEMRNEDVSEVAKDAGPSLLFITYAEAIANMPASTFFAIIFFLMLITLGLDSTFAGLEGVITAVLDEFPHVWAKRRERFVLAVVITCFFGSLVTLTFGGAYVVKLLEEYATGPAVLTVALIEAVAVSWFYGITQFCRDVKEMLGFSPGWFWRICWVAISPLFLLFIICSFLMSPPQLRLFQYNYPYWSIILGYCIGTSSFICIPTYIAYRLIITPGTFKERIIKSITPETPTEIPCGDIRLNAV

[2] = system: NTT4/SLC6A17 (NTT4-B^0AT2 chimera); assay: 3H-proline uptake inhibition, HEK293, 384-well; type: cell-based; conditions: blanket statement for all 1,5-benzodiazepine analogs
[3] = biological target: T1, B^0AT2/SLC6A15 (eGFP-hSLC6A15); assay: cell-based; design: species or system HEK293 eGFP-hSLC6A15; remark: listed apart in the source
DAT (hDAT) = DAT (hDAT) (Homo sapiens, UniProt Q01959); assay: 3H-dopamine uptake inhibition, HEK293, 384-well; type: cell-based
Chain of DAT (hDAT) (Q01959 whole entry): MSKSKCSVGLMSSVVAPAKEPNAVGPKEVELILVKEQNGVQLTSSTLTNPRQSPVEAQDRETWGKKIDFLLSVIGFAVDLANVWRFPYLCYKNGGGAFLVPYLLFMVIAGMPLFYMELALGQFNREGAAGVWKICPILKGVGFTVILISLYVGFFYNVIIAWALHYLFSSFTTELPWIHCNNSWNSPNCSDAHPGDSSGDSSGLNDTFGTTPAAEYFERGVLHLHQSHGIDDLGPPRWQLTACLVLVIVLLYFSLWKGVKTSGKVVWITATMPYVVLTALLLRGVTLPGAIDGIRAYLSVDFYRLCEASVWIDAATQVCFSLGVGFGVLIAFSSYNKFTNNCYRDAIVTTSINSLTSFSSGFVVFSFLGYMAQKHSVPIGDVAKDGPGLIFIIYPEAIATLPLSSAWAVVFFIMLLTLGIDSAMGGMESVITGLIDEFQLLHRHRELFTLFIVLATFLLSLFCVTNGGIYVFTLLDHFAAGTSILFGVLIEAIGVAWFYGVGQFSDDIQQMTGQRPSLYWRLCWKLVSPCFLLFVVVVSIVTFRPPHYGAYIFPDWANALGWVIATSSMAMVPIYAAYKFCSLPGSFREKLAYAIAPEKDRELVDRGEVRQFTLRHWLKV

[4] = biological target: T2, B^0AT2/SLC6A15 (AAV mouse SLC6A15 in primary hippocampal neurons) (Mus musculus, UniProt Q8BG16); assay: 3H-proline uptake inhibition, AAV-transduced primary hippocampal neurons; type: cell-based
T2 sequence (Q8BG16 1-729): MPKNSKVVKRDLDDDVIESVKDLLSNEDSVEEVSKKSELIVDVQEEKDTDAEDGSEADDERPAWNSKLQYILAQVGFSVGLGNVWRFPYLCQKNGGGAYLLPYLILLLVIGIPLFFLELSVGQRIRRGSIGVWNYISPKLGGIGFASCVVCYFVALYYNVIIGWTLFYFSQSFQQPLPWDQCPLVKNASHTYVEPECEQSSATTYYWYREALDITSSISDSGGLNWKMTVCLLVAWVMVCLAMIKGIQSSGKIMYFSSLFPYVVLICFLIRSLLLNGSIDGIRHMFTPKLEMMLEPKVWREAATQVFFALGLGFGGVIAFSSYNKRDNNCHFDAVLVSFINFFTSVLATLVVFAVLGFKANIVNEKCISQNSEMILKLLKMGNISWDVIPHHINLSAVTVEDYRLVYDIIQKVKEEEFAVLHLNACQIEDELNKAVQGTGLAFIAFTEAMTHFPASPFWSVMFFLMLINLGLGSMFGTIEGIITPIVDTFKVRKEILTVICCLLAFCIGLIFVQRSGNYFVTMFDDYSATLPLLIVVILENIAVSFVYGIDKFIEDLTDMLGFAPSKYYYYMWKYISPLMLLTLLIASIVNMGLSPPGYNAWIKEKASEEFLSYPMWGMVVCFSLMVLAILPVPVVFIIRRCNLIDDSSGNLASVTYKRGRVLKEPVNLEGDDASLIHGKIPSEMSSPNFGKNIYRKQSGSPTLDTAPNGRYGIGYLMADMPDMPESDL

[5] = biological target: T1, B^0AT2/SLC6A15 (eGFP-hSLC6A15); assay: cell-based; design: species or system HEK293 eGFP-hSLC6A15; remark: listed apart in the source
[6] = biological target: T1, B^0AT2/SLC6A15 (eGFP-hSLC6A15); assay: inhibition of 3H-proline uptake, HEK293; type: cell-based
[7] = biological target: T1, B^0AT2/SLC6A15 (eGFP-hSLC6A15); assay: inhibition of 3H-proline uptake by unlabelled proline, HEK293; type: cell-based
[8] = substrate: O=C(O)[C@@H]1CCCN1; assay: cells, lysate or membranes; conditions: labelled compound, pH 7.4, 120 mM Na+

With COc1ccc(C2C3=C(CCCC3=O)Nc3ccccc3N2C(=O)c2ccccc2)cc1 (stereo not shown) [10c] the IC50 [1] was 0.66 ± 0.07 µM.

In the case of CC1(C)CC(=O)C2=C(C1)Nc1ccccc1N(C(=O)c1ccccc1)C2c1ccc(C(C)(C)C)cc1 (stereo not shown) [11n], the IC50 (GAT1 (hGAT1)) is reported as > 80 µM, the IC50 (SERT (hSERT)) is reported as > 80 µM and the IC50 [2] is reported as > 80 µM. For the same molecule, the IC50 [3] was > 80 µM.

For COc1ccc(C2C3=C(CC(C)CC3=O)Nc3ccccc3N2C(=O)c2ccccc2)cc1 (stereo not shown) [14c], the IC50 (DAT (hDAT)) was > 80 µM, the IC50 (GAT1 (hGAT1)) was > 80 µM and the IC50 [4] was 1 ± 0.4 µM. The IC50 (SERT (hSERT)) was > 80 µM, the IC50 [2] was > 80 µM and the IC50 [5] was 0.24 ± 0.05 µM.

For CC1(C)CC(=O)C2=C(C1)Nc1ccccc1N(C(=O)c1ccccc1)C2c1ccc2c(c1)OCO2 (stereo not shown) [11x], the IC50 (DAT (hDAT)) was > 80 µM, the IC50 (GAT1 (hGAT1)) was > 80 µM and the IC50 (SERT (hSERT)) was > 80 µM. For the same molecule, the IC50 [2] was > 80 µM and the IC50 [3] was 0.8 ± 0.3 µM.

For COc1ccc(C2C3=C(CCCC3=O)Nc3ccccc3N2C(=O)c2ccccc2)cc1OC (stereo not shown) [10b], the IC50 [1] was 1.4 ± 0.2 µM.

Molecule O=C1CCCC2=C1C(c1ccccc1)N(C(=O)c1ccccc1)c1ccccc1N2 (stereo not shown) [10f] has an IC50 [1] of 1.2 ± 0.2 µM.

For COc1cc(C2C3=C(CCCC3=O)Nc3ccccc3N2C(=O)c2ccccc2)ccc1O (stereo not shown) [10a], the IC50 (GAT1 (hGAT1)) was > 80 µM, the IC50 (SERT (hSERT)) was > 80 µM and the IC50 [2] was > 80 µM. It also gave an IC50 [1] of 0.93 ± 0.08 µM.

COc1cc(C2C3=C(CC(C)(C)CC3=O)Nc3ccccc3N2C(=O)c2ccccc2)ccc1O (stereo not shown) [11v] was tested, and the IC50 (GAT1 (hGAT1)) was > 80 µM, the IC50 (SERT (hSERT)) was > 80 µM and the IC50 [2] was > 80 µM. For the same molecule, the IC50 [3] was 0.24 ± 0.02 µM.

Molecule O=C1CCCC2=C1C(c1ccc(Cl)c(Cl)c1)N(C(=O)c1ccccc1)c1ccccc1N2 (stereo not shown) [10d] has an IC50 [1] of 2.5 ± 0.4 µM.

For COc1ccc(C2C3=C(CC(c4ccc(OC)c(OC)c4)CC3=O)Nc3ccccc3N2C(=O)c2ccccc2)cc1 (stereo not shown) [14f], the IC50 (GAT1 (hGAT1)) was > 80 µM, the IC50 (SERT (hSERT)) was > 80 µM and the IC50 [2] was > 80 µM. For the same molecule, the IC50 [5] was > 80 µM.

O=C1CCCC2=C1C(c1ccc(F)cc1)N(C(=O)c1ccccc1)c1ccccc1N2 (stereo not shown) [10e] showed an IC50 [1] of 2.9 ± 0.6 µM.

For CC(C)C[C@H](N)C(=O)O [leucine], the IC50 [6] was 210 ± 30 µM.

With COc1ccc(C2C3=C(CC(c4ccco4)CC3=O)Nc3ccccc3N2C(=O)c2ccccc2)cc1 (stereo not shown) [14d] the IC50 (DAT (hDAT)) was > 80 µM, the IC50 (GAT1 (hGAT1)) was > 80 µM and the IC50 (SERT (hSERT)) was > 80 µM. For the same molecule, the IC50 [2] was > 80 µM and the IC50 [5] was 0.49 ± 0.03 µM.

For O=C(O)[C@@H]1CCCN1 [proline], the IC50 [7] was 257 ± 53 µM.

B1: B^0AT2/SLC6A15 (eGFP-hSLC6A15) (Homo sapiens) (protein)
chain: MPKNSKVVKRELDDDVTESVKDLLSNEDAADDAFKTSELIVDGQEEKDTDVEEGSEVEDERPAWNSKLQYILAQVGFSVGLGNVWRFPYLCQKNGGGAYLLPYLILLMVIGIPLFFLELSVGQRIRRGSIGVWNYISPKLGGIGFASCVVCYFVALYYNVIIGWSLFYFSQSFQQPLPWDQCPLVKNASHTFVEPECEQSSATTYYWYREALNISSSISESGGLNWKMTICLLAAWVMVCLAMIKGIQSSGKIIYFSSLFPYVVLICFLIRAFLLNGSIDGIRHMFTPKLEIMLEPKVWREAATQVFFALGLGFGGVIAFSSYNKRDNNCHFDAVLVSFINFFTSVLATLVVFAVLGFKANVINEKCITQNSETIMKFLKMGNISQDIIPHHINLSTVTAEDYHLVYDIIQKVKEEEFPALHLNSCKIEEELNKAVQGTGLAFIAFTEAMTHFPASPFWSVMFFLMLVNLGLGSMFGTIEGIVTPIVDTFKVRKEILTVICCLLAFCIGLIFVQRSGNYFVTMFDDYSATLPLLIVVILENIAVCFVYGIDKFMEDLKDMLGFAPSRYYYYMWKYISPLMLLSLLIASVVNMGLSPPGYNAWIEDKASEEFLSYPTWGLVVCVSLVVFAILPVPVVFIVRRFNLIDDSSGNLASVTYKRGRVLKEPVNLEGDDTSLIHGKIPSEMPSPNFGKNIYRKQSGSPTLDTAPNGRYGIGYLMADIMPDMPESDL
B1 showed a Km [8] of 960 ± 51 µM.
